The values that follow come from patent publication EP0514275A1, “Thiopyranopyrrole derivatives, their preparation and pharmaceutical compositions containing them” (RHONE-POULENC RORER S.A., priority 1991, dated 1992).

A short description of assay [1]: Analgesic activity (technique of Siegmund E. et al.). The assay is classed as in vivo. Particulars: po, read-out: DE50 mg/kg p.o. From the text:
II a notamment été mis en évidence, par l'étude de plusieurs produits que les nouveaux dérivés de thiopyranopyrrole manifestent une activité analgésique dans la technique de Siegmund E. et coll., Proc. Soc. Exp. Biol. Med., 95, 729 (1957).

Another assay deals with substance P. As to the kind of experiment: Antagonism of substance P-induced hypotension (technique of C.A. Maggi et al.). The assay is classed as in vivo. Particulars: rat; 1 mg/kg i.v./mn for 5 mn; hypotension induced by i.v. injection of 250 mg/kg of substance P. On the procedure: L'injection de substance P chez l'animal provoque une hypotension. Les produits étudiés dans la technique de C.A. Maggi et coll., J. Auton. Pharmac., 7, 11-32 (1987) manifestent un effet antagoniste chez le rat vis-à-vis de cette hypotension. Notamment les produits administrés à la dose de 1 mg/kg i.v./mn, pendant 5 mn, provoquent un antagonisme de l'hypotension induite par une injection i.v. de […] de substance P.

The test system of assay [2] is septide (agoniste de la substance P). As to the kind of experiment: Inhibition of septide-induced increase in capillary permeability (technique of A. Saria et al. adapted to the mouse). The format is in vivo, souris. As to conditions: sc, capillary permeability increase caused by septide, read-out: DE50 mg/kg s.c. The text has this: L'étude de plusieurs dérivés de thiopyranopyrrole de formule générale (I) dans la technique de A. Saria et coll., Arch. Pharmacol.,324, 212-218 (1983) adaptée à la souris a permis de mettre en évidence un effet inhibiteur de l'augmentation de la perméabilité capillaire entraîné par le septide (agoniste de la substance P, ce qui témoigne d'une activité anti-inflammatoire : […]

For `CN(C)CCCOc1ccccc1CC(=O)N1C[C@@H]2[C@H](C1)[S@+]([O-])CCC2(c1ccccc1)c1ccccc1` (racemic) [Exemple 7, {[(diméthylamino-3 propoxy-2)phényl]acétyl}-6 diphényl-4,4 oxyde-1 perhydrothiopyrano [2,3-c]pyrrole-(1RS,4aRS,7aRS)], in assay [1], the ED50 was 3 mg/kg.

As for `CN(C)CCCOc1ccccc1CC(=O)N1C[C@@H]2[C@H](C1)[S@+]([O-])CCC2(c1ccccc1)c1ccccc1` (single isomer, unassigned) [Exemple 8, (-)-{[(diméthylamino-3 propoxy-2)phényl]-2 acétyl}-6 diphényl-4,4 oxyde-1 perhydrothiopyrano [2,3-c]pyrrole-(1R*,4aR*,7aR*)], the “% d'inhibition de l'hypotension” value in the assay with substance P worked out at 100%. Also, the ED50 in assay [2] came out at 0.05 mg/kg.

For `COc1ccccc1[C@H](C)C(=O)N1C[C@@H]2[C@H](C1)[S@+]([O-])CCC2(c1ccccc1)c1ccccc1` (single isomer, unassigned) [Exemple 10, [(-)-(méthoxy-2 phényl)-2 propionyl-(S) ] -6 diphényl-4,4 oxyde-1 erhydrothiopyrano[2,3-c]pyrrole-(1R*, 4aR*, 7aR*)], the “% d'inhibition de l'hypotension” value in the assay with substance P was found to be 100%. Also, the figures for the ED50 in assay [2] and in assay [1] were less than 0.1 mg/kg and 1.7 mg/kg, respectively.
